Measurements published in US20130237487A1, “CRYSTALLINE AND NON-CRYSTALLINE FORMS OF SGLT2 INHIBITORS” (SCINOPHARM TAIWAN, LTD., priority 2011, published 2013).
“Also recorded” adds a separate entry of the source.

Key:
[1] = Dynamic vapor sorption (DVS) analysis; conditions: for sorption/desorption behavior between cycles: DVS isotherm plots, two sorption/desorption cycles; for hygroscopicity (moisture sorption) / physical stability of the solid form as humidity is changed: DVS; for hygroscopicity (moisture sorption): relative humidity increased from 0% to 90%; for physical stability of the solid form as humidity is changed: up to 90% RH
[2] = Hydration-state stability of Form CS3 under different humidity (DSC/TGA, Karl Fischer titration); type: physicochemical
Text: Form CS3 has been further characterized using DSC/TGA and Karl Fischer titration. […] Dehydration, which is reversible, only occurs when the sample is exposed to a low humidity environment (e.g., less than about 10% RH). […] The DSC/TGA traces of crystalline complex Form CS3 of canagliflozin are in accordance with FIG. 17. The aforementioned physical stability characteristic of this embodiment makes the crystalline complex Form CS3 of canagliflozin a preferred solid form of canagliflozin of this invention.
(FIG. 20) is essentially the same as the XRPD pattern acquired at 25° C. (FIG. 15). Thus, from the XRPD patterns acquired at 25° C. and 100° C., it can be reasonably concluded that although Form CS3 is a monohydrate under ambient conditions (such as in an analytical chemistry laboratory), it can also exist as an anhydrate at low humidity, such as less than about 10% RH, and at temperatures higher than ambient temperature.

[3] = laboratory environmental conditions

| hygroscopicity (moisture sorption) [1] | physical stability (hydration state) ([2]; highly humid conditions) | hygroscopicity [2, 3] | physical stability (hydration state) [2, 3] | relative humidity at which (reversible) dehydration occurs ([2]; low humidity environment) | Compound | sorption/desorption behavior between cycles [1] | physical stability of the solid form as humidity is changed [1] |
| --- | --- | --- | --- | --- | --- | --- | --- |
| not hygroscopic | – | – | – | – | Cc1ccc([C@@H]2O[C@H](CO)[C@@H](O)[C@H](O)[C@H]2O)cc1Cc1ccc(-c2ccc(F)cc2)s1.O=C(O)[C@@H]1CCCN1 [Form CS1] | completely consistent between cycles | stable in the presence or absence of moisture |
| – | remains as a monohydrate | non-hygroscopic | stable as a monohydrate | less than 10 % RH | Cc1ccc([C@@H]2O[C@H](CO)[C@@H](O)[C@H](O)[C@H]2O)cc1Cc1ccc(-c2ccc(F)cc2)s1 [Form CS3] | – | – |
| significantly hygroscopic | – | – | – | – | Cc1ccc([C@@H]2O[C@H](CO)[C@@H](O)[C@H](O)[C@H]2O)cc1Cc1ccc(-c2ccc(F)cc2)s1 [amorphous form of canagliflozin, (2S,3R,4R,5S,6R)-2-{3-[5-[4-fluoro-phenyl)-thiophen-2-ylmethyl]-4-methyl-phenyl}-6-hydroxymethyl-tetrahydro-pyran-3,4,5-triol] | second sorption/desorption cycle was different from the first cycle; also recorded: inconsistent between the two cycles | conversion or partial conversion from the amorphous state to a crystalline state; also recorded: undergoes physical change (from amorphous to crystalline) |
